# Experimental data as given in PubChem BioAssay AID1963832 (Molecular Pharmacology Branch, DTP, NCI, 2024).
# pIC50: −log10 of the molar value.
# Tested on: 885724-159-R-J1-PDC complex spheroid viability
# Test: Anticancer human tumor 885724-159-R-J1-PDC patient-derived pancreatic adenocarcinoma cell line growth inhibition [POLQ]
# Conditions: for pIC50: curve of first compound; for viability, T/C: stronger effect = lower value
# Method in brief: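 PDC + HUVEC + MSC complex spheroids; POLQ inhibitors ± partner drugs; top conc. at/near clinical Cmax, else 10 microM (SN-38 1 microM), half-log dilutions; 37 degrees C, 5% CO2.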
# [1] = second compound 0.0316 µM, first compound 0.0316 µM
# [2] = second compound 0.0316 µM, first compound 0.1 µM
# [3] = second compound 0.0316 µM, first compound 0.316 µM
# [4] = second compound 0.0316 µM, first compound 1 µM
# [5] = second compound 0.0316 µM, first compound 3.16 µM
# [6] = second compound 0.0316 µM, first compound 10 µM
# [7] = second compound 0.1 µM, first compound 0.0316 µM
# [8] = second compound 0.1 µM, first compound 0.1 µM
# [9] = second compound 0.1 µM, first compound 0.316 µM
# [10] = second compound 0.1 µM, first compound 1 µM
# [11] = second compound 0.1 µM, first compound 3.16 µM
# [12] = second compound 0.1 µM, first compound 10 µM
# [13] = second compound 0.316 µM, first compound 0.0316 µM
# [14] = second compound 0.316 µM, first compound 0.1 µM
# [15] = second compound 0.316 µM, first compound 0.316 µM
# [16] = second compound 0.316 µM, first compound 1 µM
# [17] = second compound 0.316 µM, first compound 3.16 µM
# [18] = second compound 0.316 µM, first compound 10 µM
# [19] = second compound 1 µM, first compound 0.0316 µM
# [20] = second compound 1 µM, first compound 0.1 µM
# [21] = second compound 1 µM, first compound 0.316 µM
# [22] = second compound 1 µM, first compound 1 µM
# [23] = second compound 1 µM, first compound 3.16 µM
# [24] = second compound 1 µM, first compound 10 µM
# [25] = second compound 3.16 µM, first compound 0.0316 µM
# [26] = second compound 3.16 µM, first compound 0.1 µM
# [27] = second compound 3.16 µM, first compound 0.316 µM
# [28] = second compound 3.16 µM, first compound 1 µM
# [29] = second compound 3.16 µM, first compound 3.16 µM
# [30] = second compound 3.16 µM, first compound 10 µM
# [31] = second compound 10 µM, first compound 0.0316 µM
# [32] = second compound 10 µM, first compound 0.1 µM
# [33] = second compound 10 µM, first compound 0.316 µM
# [34] = second compound 10 µM, first compound 1 µM
# [35] = second compound 10 µM, first compound 3.16 µM
# [36] = second compound 10 µM, first compound 10 µM
# 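Note: spheroids exposed to compounds for 7 days.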
smiles,measurement,setting,value
COc1cc2cc(C(=O)CCC(=O)O)sc2cc1OC + Cc1cccc(N(C)C(=O)C2C(O)CCN2c2nc(C)cc(C(F)(F)F)c2C#N)c1,pIC50,second compound 0.0316 µM,< 5.00
same,pIC50,second compound 0.1 µM,< 5.00
same,pIC50,second compound 0.316 µM,< 5.00
same,pIC50,second compound 1 µM,< 5.00
same,pIC50,second compound 3.16 µM,< 5.00
same,pIC50,second compound 10 µM,< 5.00
same,"viability, T/C",[1],108%
same,"viability, T/C",[2],104%
same,"viability, T/C",[3],100%
same,"viability, T/C",[4],103%
same,"viability, T/C",[5],107%
same,"viability, T/C",[6],95.6%
same,"viability, T/C",[7],114%
same,"viability, T/C",[8],103%
same,"viability, T/C",[9],96.9%
same,"viability, T/C",[10],104%
same,"viability, T/C",[11],99.2%
same,"viability, T/C",[12],103%
same,"viability, T/C",[13],99.5%
same,"viability, T/C",[14],106%
same,"viability, T/C",[15],89.2%
same,"viability, T/C",[16],109%
same,"viability, T/C",[17],98.4%
same,"viability, T/C",[18],85.7%
same,"viability, T/C",[19],105%
same,"viability, T/C",[20],114%
same,"viability, T/C",[21],93.1%
same,"viability, T/C",[22],104%
same,"viability, T/C",[23],105%
same,"viability, T/C",[24],93.5%
same,"viability, T/C",[25],116%
same,"viability, T/C",[26],96.5%
same,"viability, T/C",[27],103%
same,"viability, T/C",[28],98%
same,"viability, T/C",[29],104%
same,"viability, T/C",[30],88.6%
same,"viability, T/C",[31],101%
same,"viability, T/C",[32],105%
same,"viability, T/C",[33],99.2%
same,"viability, T/C",[34],102%
same,"viability, T/C",[35],87.7%
same,"viability, T/C",[36],92.5%
COc1ccc([C@@H](O)c2cc(-c3ncnc4cc(N5CCOCC5)ccc34)c(F)cc2Cl)nn1 + Cc1cccc(N(C)C(=O)C2C(O)CCN2c2nc(C)cc(C(F)(F)F)c2C#N)c1,pIC50,second compound 0.0316 µM,5.33
same,pIC50,second compound 0.1 µM,5.40
same,pIC50,second compound 0.316 µM,5.33
same,pIC50,second compound 1 µM,5.40
same,pIC50,second compound 3.16 µM,5.35
same,pIC50,second compound 10 µM,5.34
same,"viability, T/C",[1],112%
same,"viability, T/C",[2],90.2%
same,"viability, T/C",[3],88.6%
same,"viability, T/C",[4],70.1%
same,"viability, T/C",[5],60.5%
same,"viability, T/C",[6],35.6%
same,"viability, T/C",[7],93.7%
same,"viability, T/C",[8],91.6%
same,"viability, T/C",[9],81.5%
same,"viability, T/C",[10],64.7%
same,"viability, T/C",[11],56.7%
same,"viability, T/C",[12],35.2%
same,"viability, T/C",[13],104%
same,"viability, T/C",[14],84.8%
same,"viability, T/C",[15],81.1%
same,"viability, T/C",[16],81.9%
same,"viability, T/C",[17],57.2%
same,"viability, T/C",[18],33.7%
same,"viability, T/C",[19],103%
same,"viability, T/C",[20],93.2%
same,"viability, T/C",[21],89%
same,"viability, T/C",[22],68%
same,"viability, T/C",[23],55.3%
same,"viability, T/C",[24],34.5%
same,"viability, T/C",[25],100%
same,"viability, T/C",[26],92.5%
same,"viability, T/C",[27],85.1%
same,"viability, T/C",[28],78.6%
same,"viability, T/C",[29],55.2%
same,"viability, T/C",[30],33.4%
same,"viability, T/C",[31],101%
same,"viability, T/C",[32],90.3%
same,"viability, T/C",[33],85.1%
same,"viability, T/C",[34],77%
same,"viability, T/C",[35],55.9%
same,"viability, T/C",[36],34.9%
Cn1ncnc1[C@H]1c2n[nH]c(=O)c3cc(F)cc(c23)N[C@@H]1c1ccc(F)cc1 + Cc1cccc(N(C)C(=O)C2C(O)CCN2c2nc(C)cc(C(F)(F)F)c2C#N)c1,pIC50,second compound 0.0316 µM,< 7.00
same,pIC50,second compound 0.1 µM,< 7.00
same,pIC50,second compound 0.316 µM,< 7.00
same,pIC50,second compound 1 µM,< 7.00
same,pIC50,second compound 3.16 µM,< 7.00
same,pIC50,second compound 10 µM,< 7.00
same,"viability, T/C","second compound 0.0316 µM, first compound 0.000316 µM",97.2%
same,"viability, T/C","second compound 0.0316 µM, first compound 0.001 µM",86.9%
same,"viability, T/C","second compound 0.0316 µM, first compound 0.00316 µM",96.1%
same,"viability, T/C","second compound 0.0316 µM, first compound 0.01 µM",86.3%
same,"viability, T/C",[1],93.6%
same,"viability, T/C",[2],87.5%
same,"viability, T/C","second compound 0.1 µM, first compound 0.000316 µM",96.9%
same,"viability, T/C","second compound 0.1 µM, first compound 0.001 µM",95%
same,"viability, T/C","second compound 0.1 µM, first compound 0.00316 µM",92.9%
same,"viability, T/C","second compound 0.1 µM, first compound 0.01 µM",91.7%
same,"viability, T/C",[7],99.9%
same,"viability, T/C",[8],87.8%
same,"viability, T/C","second compound 0.316 µM, first compound 0.000316 µM",112%
same,"viability, T/C","second compound 0.316 µM, first compound 0.001 µM",97.1%
same,"viability, T/C","second compound 0.316 µM, first compound 0.00316 µM",93.2%
same,"viability, T/C","second compound 0.316 µM, first compound 0.01 µM",93.5%
same,"viability, T/C",[13],100%
same,"viability, T/C",[14],86.4%
same,"viability, T/C","second compound 1 µM, first compound 0.000316 µM",98.5%
same,"viability, T/C","second compound 1 µM, first compound 0.001 µM",101%
same,"viability, T/C","second compound 1 µM, first compound 0.00316 µM",89.2%
same,"viability, T/C","second compound 1 µM, first compound 0.01 µM",84.5%
same,"viability, T/C",[19],92.9%
same,"viability, T/C",[20],88.5%
same,"viability, T/C","second compound 3.16 µM, first compound 0.000316 µM",98.3%
same,"viability, T/C","second compound 3.16 µM, first compound 0.001 µM",101%
same,"viability, T/C","second compound 3.16 µM, first compound 0.00316 µM",86.4%
same,"viability, T/C","second compound 3.16 µM, first compound 0.01 µM",89.6%
same,"viability, T/C",[25],88.6%
same,"viability, T/C",[26],84.7%
same,"viability, T/C","second compound 10 µM, first compound 0.000316 µM",93.7%
same,"viability, T/C","second compound 10 µM, first compound 0.001 µM",95.9%
same,"viability, T/C","second compound 10 µM, first compound 0.00316 µM",98.1%
same,"viability, T/C","second compound 10 µM, first compound 0.01 µM",94.4%
same,"viability, T/C",[31],94.1%
same,"viability, T/C",[32],80%
